This is an account of results in patent publication US20050176672A1, “Use of cationic lipids to generate anti-tumor immunity” (Genzyme Corporation, priority 1999, published 2005).

SMILES strings stand for the structures.

For series [1], the system named is cytokine and cellular levels in the BALF. Conditions: complexes formed between DOTMA and pDNA; Friemark et al. 1998; cited from earlier work.
Another series concerns cytokines in BALF. Description: Cytokine levels in mouse BALF after intranasal instillation (ELISA). Type of series: in vivo, BALB/c mice. Conditions: component instilled alone; BALF 24 h. From the text: Cytokine levels in the mouse BALF were quantitated using enzyme-linked immunosorbent assay (ELISA) kits as specified by the manufacturers. IFN-γ, TNF-α, IL1-α, IL-1β, IL-10 and IL-6 ELISA kits were from Genzyme Corporation, while mKC, MIP-2 and GM-CSF ELISA kits were from R&D Systems, and the Leukotriene B4 ELISA kit was from Perseptive Diagnostics.
The cationic lipid:pDNA complexes were formed by mixing equal volumes of GL67:DOPE (1:2) with pDNA as described previously (Lee et al., Hum. Gene Ther. 7: 1701-1717, (1996)) to a final concentration of 0.6:1.2:3.6 mM (GL-67:DOPE:pDNA) or 0.3:0.6:1.8 mM, as indicated in the figure legends. The DNA concentration is expressed in terms of nucleotides, using an average nucleotide molecular weight of 330 daltons. BALB/c mice were instilled intranasally with 100 μl of complex as described. See Scheule et al., Hum. Gene Ther. 8: 689-707 (1997). The animals were euthanized and their lungs were lavaged 24 h post-instillation using phosphate-buffered saline (PBS). The recovered BALF were centrifuged at 1,500 rpm for 4 min, and the resulting supernatants were removed and frozen at −80° C. for subsequent cytokine analysis. […]
To determine whether methylation of pDNA affected the inflammatory response in the lungs, we measured the levels of several different cytokines in the BALF 24 h after instillation. […]

For the next series, the system named is BALB/c mouse lungs. Description: Histopathological analysis of lung after intranasal instillation. Type of series: in vivo, BALB/c mice. Conditions: component alone; scale from 0 to 4; 2 days post-instillation. From the text:
The histopathological changes within BALB/c mouse lungs following administration of either cationic lipid alone, pDNA alone, or cationic lipid:pDNA complexes were also examined. BALB/c mice were instilled intranasally with GL-67:(m)pCF1-CAT, GL67:pCF1-CAT, GL-67 alone, (m)pCF1-CAT, pCF1-CAT, or water (vehicle control). Mice were sacrificed 2 days post-instillation and the lungs were processed for histological examination in a blinded manner. Histopathology.
Lungs were fixed by inflation at 30 cm of H2O pressure with 2% paraformaldehyde and 0.2% glutaraldehyde. Representative samples were taken from each lung lobe, embedded in glycol methacrylate, sectioned and stained with hematoxylin and eosin. Histopathology on the lung was evaluated in a blinded fashion and graded subjectively using a scale of 0 to 4, where a score of 0 indicates no abnormal findings and a score of 4 reflects severe changes with intense infiltrates. See Scheule et al., Hum. Gene Ther. 8: 689-707 (1997).
The extent of lung inflammation was graded using a scale from 0 to 4, with 0 indicating no abnormalities, 1 indicating a minimal change, 2 a mild change, 3 a moderate change, and 4 representing severe changes from a normal lung (FIG. 4).

Another series deals with M3 melanoma cells. Description: M3 melanoma model. Type of series: in vivo, mice. Conditions: lipid alone, equivalent amount; treated days 5, 10, 14, 18. How it is done:
On day 0, mice were inoculated intraperitoneally with M3 melanoma cells. Following the inoculation of M3 tumor cells, the mice were treated on days […], 14, and 18 with either the GL67:pNull complex, which is cationic lipid GL67 complexed to a null vector (a vector without an expressible insert), or were left untreated (control). All untreated control animals died by day 40, while greater than 85% of the animals treated with the GL 67:pNull complex were alive on day 68.
On day 68, the surviving animals were rechallenged subcutaneously with M3 tumor cells. A naive group of animals was also challenged with these same cells in parallel. All the animals in the naive group died by day 105, while approximately 40% of the animals that had been originally treated with the GL 67:pNull complex survived not only the initial intraperitoneal tumor cells but also the secondary subcutaneous challenge.
Following the intraperitoneal inoculation on day 0 of M3 tumor cells, groups of mice were treated on days 5, 10, 14, and 18 with either GL 67:pNull complexes (lipid:pNull), an equivalent amount of GL 67 (lipid alone), an equivalent amount of pNull DNA (pNull vector alone), or were untreated.

Take `CCCCCCCC/C=C\CCCCCCCCOCC(C[N+](C)(C)C)OCCCCCCCC/C=C\CCCCCCCC.[Cl-]` (stereo not shown) [DOTMA, N-[1-(2-3-dioleyloxy)propyl]-N,N,N-trimethylammonium chloride]: the “cytokine and cellular levels in the BALF of treated animals” value in series [1] was “enhanced”.

As for `CC(C)CCC[C@@H](C)[C@H]1CC[C@H]2[C@@H]3CC=C4C[C@@H](OC(=O)N(CCCN)CCCCNCCCN)CC[C@]4(C)[C@H]3CC[C@]12C` [GL-67], in the series on cytokines in BALF, the “levels of these four cytokine (TNF-α, IFN-γ, IL-6, KC) in BALF” value is recorded as “low levels”. Besides, in the series on BALB/c mouse lungs, the lung inflammation score result was “scored slightly lower than lungs that received lipid:pDNA complex”. Moreover, the “mice surviving more than 50 days post tumor cell inoculation” value in the series on M3 melanoma cells is on record as “about 35%”.
